From ChEMBL document CHEMBL4038282 (Eur J Med Chem, 2017)
In brackets after ≈: the same amount, converted by molar mass.

Assays:
[1] = tested on: MDA-MB-231; test: Antiproliferative activity against human MDA-MB-231 cells up to 72 hrs by MTT assay; format: functional, cell-based; settings: MDA-MB-231, 72 h
[2] = tested on: MDA-MB-231; test: Potency index, ratio of curcumin IC50 to compound IC50 for human MDA-MB-231 cells; format: functional
[3] = tested on: HCT-116; test: Antiproliferative activity against human HCT116 cells up to 72 hrs by MTT assay; format: functional, cell-based; settings: HCT-116, 72 h
[4] = tested on: PC-3; test: Antiproliferative activity against human PC3 cells up to 72 hrs by MTT assay; format: functional, cell-based; settings: PC-3, 72 h
[5] = tested on: MDA-MB-468; test: Antiproliferative activity against doxorubicin-resistant human MDA-MB-468 cells after 24 hrs by MTT assay; format: functional, cell-based; settings: MDA-MB-468, 24 h
[6] = tested on: MDA-MB-468; test: Potency index, ratio of curcumin IC50 to compound IC50 for doxorubicin-resistant human MDA-MB-468 cells; format: functional
[7] = tested on: Mus musculus; test: Acute-toxicity in nu/nu mouse assessed as changes in body weight at 500 mg/kg, po administered once daily for 5 days measured for 21 days; format: organism-based; settings: in vivo, 504 h
[8] = tested on: Mus musculus; test: Acute-toxicity in nu/nu mouse assessed as behavioral changes at 500 mg/kg, po administered once daily for 5 days measured for 21 days; format: organism-based; settings: in vivo, 504 h
[9] = tested on: T47D; test: Antiproliferative activity against ER/PR positive human T47D cells after 24 hrs by MTT assay; format: functional, cell-based
[10] = tested on: MCF7; test: Antiproliferative activity against ER/PR positive human MCF7 cells after 24 hrs by MTT assay; format: functional, cell-based; settings: MCF7, 24 h
[11] = tested on: MDA-MB-453; test: Antiproliferative activity against HER2 positive human MDA-MB-453 cells after 24 hrs by MTT assay; format: functional, cell-based; settings: MDA-MB-453, 24 h
[12] = tested on: MDA-MB-157; test: Antiproliferative activity against human MDA-MB-157 cells after 24 hrs by MTT assay; format: functional, cell-based; settings: MDA-MB-157, 24 h
[13] = tested on: BT-474; test: Antiproliferative activity against HER2 positive human BT474 cells after 24 hrs by MTT assay; format: functional, cell-based; settings: BT-474, 24 h
[14] = tested on: SK-BR-3; test: Antiproliferative activity against HER2 positive human SKBR3 cells after 24 hrs by MTT assay; format: functional, cell-based; settings: SK-BR-3, 24 h
[15] = tested on: MDA-MB-468; test: Antiproliferative activity against human MDA-MB-468 cells after 24 hrs by MTT assay; format: functional, cell-based; settings: MDA-MB-468, 24 h
[16] = tested on: Hs-578T; test: Antiproliferative activity against human Hs578T cells after 24 hrs by MTT assay; format: functional, cell-based
[17] = tested on: Mus musculus; test: Toxicity in nu/nu mouse assessed as changes in body weight at 100 mg/kg, po administered once daily for 32 days measured every 4 days during compound dosing; format: organism-based; settings: in vivo
[18] = tested on: Mus musculus; test: Toxicity in nu/nu mouse assessed as effect on food consumption at 100 mg/kg, po administered once daily for 32 days measured during compound dosing; format: organism-based; settings: in vivo, 768 h
[19] = tested on: Mus musculus; test: Toxicity in nu/nu mouse assessed as behavioral changes at 100 mg/kg, po administered once daily for 32 days measured during compound dosing; format: organism-based; settings: in vivo, 768 h
[20] = Solubility of the compound in water after 24 hrs by shake-flask method; format: physicochemical
[21] = Solubility of the compound in ethanol after 24 hrs by shake-flask method; format: physicochemical; settings: 24 h

IC50 [1] [µM] | IC50 [3] [µM] | IC50 [4] [µM] | SMILES | Ratio IC50 [2] | other results
2 | 1.34 | 4.21 | CCC(CO)(CO)C(=O)Oc1ccc(/C=C/C(=O)/C=C(O)/C=C/c2ccc(OC(=O)C(CC)(CO)CO)c(OC)c2)cc1OC | 2.4 - 12.2 | 
3.85 | 3.64 | 7.03 | CCC(CO)(CO)C(=O)Oc1cc(/C=C/C(=O)/C=C(O)/C=C/c2ccc(OC)c(O)c2)ccc1OC | 2.4 - 12.2 | 
16.2 | 13.8 | 18.8 | COc1cc(/C=C/C(=O)CC(=O)/C=C/c2ccc(O)c(OC)c2)ccc1O [CURCUMIN] |  | IC50 [9]: 47.9 µM; IC50 [10]: 42.9 µM; IC50 [11]: 32.4 µM; IC50 [12]: 40.4 µM; IC50 [13]: 30.1 µM; IC50 [14]: 42.8 µM; IC50 [15]: 42.9 µM; IC50 [16]: 55.5 µM; IC50 [5]: 58.6 µM; Activity [17]: Non-Toxic; Activity [18]: Non-Toxic; Activity [19]: Non-Toxic; solubility thermodynamic at 24 h [20]: 0.6 µg/mL (≈ 1.63 µM); solubility [21]: 1860 µg/mL (≈ 5050 µM)

More lines, now with the values behind:

SMILES | IC50 [1] [µM] | IC50 [3] [µM] | IC50 [4] [µM] | Ratio IC50 [2] | other results
CC(CO)(CO)C(=O)Oc1ccc(/C=C/C(=O)/C=C(O)/C=C/c2ccc(OC(=O)C(C)(CO)CO)cc2)cc1 | 6.74 | 4.1 | 5.59 | 2.4 - 12.2 | 
CCC(CC)(C(=O)/C=C/c1ccc(OC(=O)C(C)(CO)CO)c(OC)c1)C(=O)/C=C/c1ccc(OC(=O)C(C)(CO)CO)c(OC)c1 | 1.78 | 1.74 | 2.16 | 2.4 - 12.2 | 
COc1cc(/C=C/C(=O)C(C)(C)C(=O)/C=C/c2ccc(OC(=O)C(C)(CO)CO)c(OC)c2)ccc1OC(=O)C(C)(CO)CO | 1.98 | 1.65 | 1.76 | 2.4 - 12.2 | IC50 [5]: 5.71 µM; Ratio IC50 [6]: 10; Activity [7]: Non-Toxic; Activity [8]: Non-Toxic
CC(CO)(CO)C(=O)Oc1ccc(/C=C/C(=O)/C=C(O)/C=C/c2ccc(O)cc2)cc1 | 1.33 |  | 5.22 | 12 | 
COc1cc(/C=C/C(=O)C(Cc2ccccc2)(Cc2ccccc2)C(=O)/C=C/c2ccc(OC(=O)C(C)(CO)CO)c(OC)c2)ccc1OC(=O)C(C)(CO)CO | 2.11 | 3.88 | 7.28 | 2.4 - 12.2 | 
